Experimental findings from PMC8151276, “An Integrated Approach toward NanoBRET Tracers for Analysis of GPCR Ligand Engagement” (Molecules, 2021) are described below.

Type in all cases: binding
The target in one assay is T1, OPRL1 (Homo sapiens, UniProt P41146).
T1 construct: purchased Promega (in-house HiBiT-GPCR construct library, NanoBRET)
Description: NanoBRET screen HiBiT-OPRL1 in HEK293. The protocol: (§1) Each tracer candidate was screened across the entire library of HiBiT-GPCR constructs using NanoBRET as the detection modality. As depicted in Figure 4A, the specificity of interactions was evaluated through decrease in BRET due to competitive displacement of a bound tracer by excess parental compound. Each tracer was analyzed for binding to each HiBiT-GPCR fusion in the absence and in the presence of competing parental compound. Briefly, HEK293 cells were transfected with HiBiT-GPCR constructs diluted into promoterless DNA to reduce expression and maximize translocation to the cell surface. Each tracer candidate was then screened at concentrations of 1 μM and 0.1 μM across cells expressing these fusions. Cells were treated for 1.5 h with tracer either alone or in the presence of 20 μM competing parental compound (i.e., control). BRET was measured upon addition of purified LgBiT and subsequent complementation with HiBiT genetically fused to a GPCR. The specificity of interactions was assessed through a decrease in BRET signal due to competitive displacement of the bound tracer. To further gauge the robustness of these interactions, the fold response over the control (i.e., BRETtracer/BRETcontrol) was calculated. We chose a 1.5-fold response, which translates to ≥7-fold signal over noise as the minimal threshold required to score an interaction as positive. […]. Below we highlight the screening results obtained for our exemplary fluorescent tracers based on Clozapine, Amitriptyline and AZD1283.
(§2) HiBiT-GPCR DNA constructs were diluted in 10 mM Tris pH 8 to a final concentration of 0.01 μg/μL, arrayed in 96-well plates and stored at −20 °C. For transfection, HEK293 cells were suspended in Opti-MEM (without phenol red) supplemented with 2% fetal bovine serum (Seradigm) and 100 units/mL penicillin–streptomycin (Gibco) at a final concentration of 220,000 cells/mL and dispensed into white 96-well plates at 90 μL/well. Subsequent transfections and screens were carried using an Agilent Bravo Automated Liquid Handling Platform. First, the 96-well HiBiT DNA arrays were diluted 25-fold in Opti-MEM (without serum or phenol red) to a final concentration of 0.0004 μg/μL and 20 μL of the diluted DNAs were transferred into new 96-well plates. Next, promoterless carrier DNA (1 μg/μL) was diluted 25-fold (0.04 μg/μL) and then dispensed into the diluted arrays at 20 μL/well. Following brief mixing, Viafect transfection reagent (Promega) diluted 16-fold into Opti-MEM was dispensed into the plates at 40 μL/well. After mixing by pipetting, plates were incubated for 10 min on the pipetting station deck. The DNA-transfection reagent complexes were then added to plates containing cells. To facilitate the screen, 10 μL of DNA-transfection reagent complexes were added in duplicates to the top 4 and bottom 4 rows, resulting in two identical 48-well arrays per plate. Plates with transfected cells were incubated for 18–20 h at 37 °C/5% CO2. A screen of each tracer across the entire library using two different concentrations requires duplicate plates of transfected cells. Depending on the number of tracers being screened, transfections can be scaled up using the same ratios. The next day, for each tracer, four 20× screening solutions in tracer dilution buffer (Promega) were prepared: two duplicates at final concentration of 20 μM and two duplicates at a final concentration of 2 μM. A competing unmodified compound was added to one of each duplicate at a final concentration of 400 μM. The four resulting solutions were diluted 4-fold in Opti-MEM without serum or phenol red to generate 5× solutions (5 µM and 0.5 µM tracer +/− 100 μM competing compound). To screen the library, a BioTek MultiFlo FX liquid dispenser was used to dispense 22.5 µL of tracer solution to the top 4 rows and 22.5 µL tracer + competing compound solution to the 4 bottom rows. Plates were briefly mixed on an orbital shaker and incubated for 1.5 h at room temperature. […]

The target of the next assay is T2, NMUR2 (Homo sapiens, UniProt Q9GZQ4).
T2 construct: purchased Promega (in-house HiBiT-GPCR construct library, NanoBRET)
T2 sequence (Q9GZQ4 whole entry): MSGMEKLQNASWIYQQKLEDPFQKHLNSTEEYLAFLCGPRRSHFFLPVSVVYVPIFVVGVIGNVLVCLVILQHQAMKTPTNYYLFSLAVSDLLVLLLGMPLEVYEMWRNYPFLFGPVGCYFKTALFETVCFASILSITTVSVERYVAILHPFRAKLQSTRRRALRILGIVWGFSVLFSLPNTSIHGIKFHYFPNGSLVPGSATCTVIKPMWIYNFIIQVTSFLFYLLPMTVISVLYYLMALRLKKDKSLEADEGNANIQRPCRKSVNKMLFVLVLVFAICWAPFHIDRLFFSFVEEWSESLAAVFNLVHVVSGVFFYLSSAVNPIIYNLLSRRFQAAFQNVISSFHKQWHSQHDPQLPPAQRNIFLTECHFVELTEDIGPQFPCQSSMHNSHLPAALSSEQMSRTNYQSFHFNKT
As to the kind of experiment: NanoBRET screen HiBiT-NMUR2 in HEK293. The procedure:
as §1, §2

Another assay deals with T3, SSTR5 (Homo sapiens, UniProt P35346).
T3 construct: purchased Promega (in-house HiBiT-GPCR construct library, NanoBRET)
T3 sequence (P35346 whole entry): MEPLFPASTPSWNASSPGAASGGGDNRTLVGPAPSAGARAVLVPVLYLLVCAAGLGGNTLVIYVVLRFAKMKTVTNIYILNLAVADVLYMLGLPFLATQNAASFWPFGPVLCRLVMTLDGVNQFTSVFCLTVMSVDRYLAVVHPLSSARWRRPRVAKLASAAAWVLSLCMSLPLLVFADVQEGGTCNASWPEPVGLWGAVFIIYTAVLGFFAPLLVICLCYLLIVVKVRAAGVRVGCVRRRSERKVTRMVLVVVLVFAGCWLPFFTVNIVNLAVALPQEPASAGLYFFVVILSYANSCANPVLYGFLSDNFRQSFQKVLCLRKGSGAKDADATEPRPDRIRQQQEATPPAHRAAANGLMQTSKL
As to the kind of experiment: NanoBRET screen HiBiT-SSTR5 in HEK293. The procedure:
as §1, §2
In general terms: Bioluminescence resonance energy transfer reports proximity on the nanometre scale.

The target of the next assay is T4, SSTR2 (Homo sapiens, UniProt P30874).
T4 construct: purchased Promega (in-house HiBiT-GPCR construct library, NanoBRET)
T4 sequence (P30874 whole entry): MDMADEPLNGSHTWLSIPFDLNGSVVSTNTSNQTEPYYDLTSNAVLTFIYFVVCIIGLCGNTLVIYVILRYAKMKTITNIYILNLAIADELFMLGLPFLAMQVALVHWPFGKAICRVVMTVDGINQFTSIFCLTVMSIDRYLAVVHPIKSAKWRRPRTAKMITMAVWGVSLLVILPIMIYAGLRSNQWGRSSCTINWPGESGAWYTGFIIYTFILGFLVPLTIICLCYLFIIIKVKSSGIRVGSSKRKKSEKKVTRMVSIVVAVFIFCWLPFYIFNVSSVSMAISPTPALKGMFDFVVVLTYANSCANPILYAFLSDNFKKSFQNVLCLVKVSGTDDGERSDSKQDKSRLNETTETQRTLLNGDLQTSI
As to the kind of experiment: NanoBRET screen HiBiT-SSTR2 in HEK293. The procedure: as §1, §2

Another assay concerns the target T5, PTGDR2 (Homo sapiens, UniProt Q9Y5Y4).
T5 construct: purchased Promega (in-house HiBiT-GPCR construct library, NanoBRET)
T5 sequence (Q9Y5Y4 1-395): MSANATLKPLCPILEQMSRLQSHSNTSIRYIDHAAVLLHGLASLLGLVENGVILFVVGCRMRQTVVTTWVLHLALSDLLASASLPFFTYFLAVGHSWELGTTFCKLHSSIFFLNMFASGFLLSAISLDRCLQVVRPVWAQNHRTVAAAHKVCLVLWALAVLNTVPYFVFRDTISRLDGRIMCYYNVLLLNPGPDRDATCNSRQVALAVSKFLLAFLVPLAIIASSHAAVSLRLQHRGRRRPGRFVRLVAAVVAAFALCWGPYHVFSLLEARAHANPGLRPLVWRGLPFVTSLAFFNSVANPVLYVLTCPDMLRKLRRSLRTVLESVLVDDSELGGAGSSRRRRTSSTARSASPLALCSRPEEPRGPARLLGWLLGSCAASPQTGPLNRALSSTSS
As to the kind of experiment: NanoBRET screen HiBiT-PTGDR2 in HEK293. The procedure:
as §1, §2

The next assay addresses T6, RXFP3 (Homo sapiens, UniProt Q9NSD7).
T6 construct: purchased Promega (in-house HiBiT-GPCR construct library, NanoBRET)
T6 sequence (Q9NSD7 1-469): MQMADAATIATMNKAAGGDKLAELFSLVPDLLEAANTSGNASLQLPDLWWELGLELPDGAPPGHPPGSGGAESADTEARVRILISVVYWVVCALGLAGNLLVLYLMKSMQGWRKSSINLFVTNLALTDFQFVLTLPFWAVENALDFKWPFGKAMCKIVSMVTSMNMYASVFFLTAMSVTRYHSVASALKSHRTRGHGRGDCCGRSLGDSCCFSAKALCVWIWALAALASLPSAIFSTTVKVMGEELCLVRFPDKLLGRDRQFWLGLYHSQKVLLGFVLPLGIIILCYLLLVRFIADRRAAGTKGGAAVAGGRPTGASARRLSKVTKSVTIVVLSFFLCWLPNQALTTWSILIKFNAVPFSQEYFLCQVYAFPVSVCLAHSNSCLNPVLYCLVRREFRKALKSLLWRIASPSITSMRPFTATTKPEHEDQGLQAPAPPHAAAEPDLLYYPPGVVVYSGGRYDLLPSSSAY
As to the kind of experiment: NanoBRET screen HiBiT-RXFP3 in HEK293. The procedure: as §1, §2

In another assay the target is T7, ADRB1 (Homo sapiens, UniProt P08588).
T7 construct: purchased Promega (in-house HiBiT-GPCR construct library, NanoBRET)
T7 sequence (P08588 whole entry): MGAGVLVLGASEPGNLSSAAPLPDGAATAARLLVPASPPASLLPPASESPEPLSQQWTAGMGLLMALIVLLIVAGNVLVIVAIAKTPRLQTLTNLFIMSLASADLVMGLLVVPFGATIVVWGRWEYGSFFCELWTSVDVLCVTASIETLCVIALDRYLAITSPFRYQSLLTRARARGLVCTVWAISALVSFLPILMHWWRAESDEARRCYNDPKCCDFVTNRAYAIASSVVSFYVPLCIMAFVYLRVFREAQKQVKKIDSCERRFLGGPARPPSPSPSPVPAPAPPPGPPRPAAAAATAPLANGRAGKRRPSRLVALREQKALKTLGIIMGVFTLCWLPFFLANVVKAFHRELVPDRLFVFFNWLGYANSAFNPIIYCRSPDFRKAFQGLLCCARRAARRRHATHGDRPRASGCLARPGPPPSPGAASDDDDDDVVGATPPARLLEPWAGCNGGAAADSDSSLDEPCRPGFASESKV
As to the kind of experiment: NanoBRET screen HiBiT-ADRB1 in HEK293.

T1 sequence (P41146 whole entry): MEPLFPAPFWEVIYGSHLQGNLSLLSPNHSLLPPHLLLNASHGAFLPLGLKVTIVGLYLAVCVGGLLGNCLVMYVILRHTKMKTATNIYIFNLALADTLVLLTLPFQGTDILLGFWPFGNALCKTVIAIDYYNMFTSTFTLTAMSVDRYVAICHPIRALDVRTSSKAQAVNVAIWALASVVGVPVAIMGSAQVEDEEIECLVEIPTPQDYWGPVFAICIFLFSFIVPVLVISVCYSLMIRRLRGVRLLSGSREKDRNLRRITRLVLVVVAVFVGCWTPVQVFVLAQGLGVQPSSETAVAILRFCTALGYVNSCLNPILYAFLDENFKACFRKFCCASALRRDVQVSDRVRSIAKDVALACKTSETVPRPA

Regarding `CN1CCN(C2=Nc3cc(Cl)ccc3N(CC(=O)NCCOCCOCCOCCOCCNC(=O)CCc3ccc4n3[B-](F)(F)[N+]3=C(c5ccc[nH]5)C=CC3=C4)c3ccccc32)CC1` [Clozapine-c-2-NB590], the “NanoBRET Fold Response” value at OPRL1 (OPRL1, 0.1μM tracer) was determined as 0.98; at OPRL1 (OPRL1, 1μM tracer), 0.99; on NMUR2 (NMUR2, 0.1μM tracer) it was 1.12; at NMUR2 (NMUR2, 1μM tracer), 0.92; on SSTR5 (SSTR5, 0.1μM tracer), 1.01; at SSTR5 (SSTR5, 1μM tracer) it was 0.99. In addition, the “NanoBRET Fold Response” value is 0.97 at SSTR2 (SSTR2, 0.1μM tracer); 1.00 on SSTR2 (SSTR2, 1μM tracer); 0.96 on PTGDR2 (PTGDR2, 0.1μM tracer); 1.02 at PTGDR2 (PTGDR2, 1μM tracer); 0.99 on RXFP3 (RXFP3, 0.1μM tracer); 1.05 on RXFP3 (RXFP3, 1μM tracer). In addition, the “NanoBRET Fold Response” value at ADRB1 (ADRB1, 0.1μM tracer) is listed as 1.02; on ADRB1 (ADRB1, 1μM tracer), 0.94.
Regarding `O=C(CCOCCOCCOCCOCCNC(=O)CCc1ccc2n1[B-](F)(F)[N+]1=C(c3ccc[nH]3)C=CC1=C2)NCCCN1CCN(C2=Nc3cc(Cl)ccc3Nc3ccccc32)CC1` [Clozapine-a-2-NB590], the “NanoBRET Fold Response” value on OPRL1 (OPRL1, 0.1μM tracer) is 0.99; at OPRL1 (OPRL1, 1μM tracer) it was 1.05; on NMUR2 (NMUR2, 0.1μM tracer), 0.93; on NMUR2 (NMUR2, 1μM tracer), 1.01; on SSTR5 (SSTR5, 0.1μM tracer), 0.97; on SSTR5 (SSTR5, 1μM tracer), 1.00. Besides, the “NanoBRET Fold Response” value at SSTR2 (SSTR2, 0.1μM tracer) is 1.03; at SSTR2 (SSTR2, 1μM tracer), 1.07; on PTGDR2 (PTGDR2, 0.1μM tracer), 1.01; on PTGDR2 (PTGDR2, 1μM tracer), 1.00; on RXFP3 (RXFP3, 0.1μM tracer) it was 1.04; on RXFP3 (RXFP3, 1μM tracer), 0.96. For the same compound, the “NanoBRET Fold Response” value amounted to 0.95 at ADRB1 (ADRB1, 0.1μM tracer) and 0.94 on ADRB1 (ADRB1, 1μM tracer).
`CCOC(=O)c1cc(C#N)c(N2CCC(C(=O)NS(=O)(=O)Cc3ccccc3/C=C/C(=O)NCCNC(=O)CCc3ccc4n3[B-](F)(F)[N+]3=C(c5ccc[nH]5)C=CC3=C4)CC2)nc1C` [AZD1283-1-NB590]: the “NanoBRET Fold Response” value on OPRL1 (OPRL1, 0.1μM) was determined as 0.98; on OPRL1 (OPRL1, 1μM) it was 1.15; at NMUR2 (NMUR2, 0.1μM), 1.01; at NMUR2 (NMUR2, 1μM) it was 0.86; on SSTR5 (SSTR5, 0.1μM) it was 1.09; on SSTR5 (SSTR5, 1μM), 1.05. For the same compound, the “NanoBRET Fold Response” value at SSTR2 (SSTR2, 0.1μM) worked out at 1.02; on SSTR2 (SSTR2, 1μM), 1.09; on PTGDR2 (PTGDR2, 0.1μM) it was 1.07; on PTGDR2 (PTGDR2, 1μM), 1.03; on RXFP3 (RXFP3, 0.1μM), 0.94; at RXFP3 (RXFP3, 1μM), 1.12. Further, the “NanoBRET Fold Response” value at ADRB1 (ADRB1, 0.1μM) is 1.05; on ADRB1 (ADRB1, 1μM) it was 1.09.
On to `COc1ccc2[nH]c(-c3ccc(CNC(=O)CCOCCOCCOCCOCCNC(=O)CCc4ccc5n4[B-](F)(F)[N+]4=C(c6ccc[nH]6)C=CC4=C5)cc3)c(CCNC(C)=O)c2n1` [AzomelatoninICO9-2-NB590], for which the “NanoBRET Fold Response” value came to 0.71 on OPRL1 (0.1μM tracer); 1.05 on OPRL1 (1μM tracer); 0.71 at NMUR2 (0.1μM tracer); 0.99 on NMUR2 (1μM tracer); 1.01 on SSTR5 (0.1μM tracer); 1.01 at SSTR5 (1μM tracer). In addition, the “NanoBRET Fold Response” value on SSTR2 (0.1μM tracer) is reported as 1.10; on SSTR2 (1μM tracer), 1.00; on PTGDR2 (0.1μM tracer), 1.06; on PTGDR2 (1μM tracer) it was 1.12; at RXFP3 (0.1μM tracer), 0.89; on RXFP3 (1μM tracer), 1.22. In addition, the figures for the “NanoBRET Fold Response” value on ADRB1 (0.1μM tracer) and at ADRB1 (1μM tracer) were 0.84 and 0.96, respectively.
As to `CCCn1c(=O)c2[nH]c(-c3ccc(OCC(=O)NCCNC(=O)CCOCCNC(=O)c4ccc(CNC(=O)CCc5ccc6n5[B-](F)(F)[N+]5=C(c7ccc[nH]7)C=CC5=C6)cc4)cc3)nc2n(CCC)c1=O` [XAC-3-NB590], the “NanoBRET Fold Response” value on OPRL1 (OPRL1, tracer 0.1μM) turned out to be 1.12; on OPRL1 (OPRL1, tracer 1μM), 0.72; at NMUR2 (NMUR2, tracer 0.1μM) it was 1.11; at NMUR2 (NMUR2, tracer 1μM), 0.89; at SSTR5 (SSTR5, tracer 0.1μM), 0.99; at SSTR5 (SSTR5, tracer 1μM) it was 1.01. Also, the “NanoBRET Fold Response” value on SSTR2 (SSTR2, tracer 0.1μM) stood at 0.97; on SSTR2 (SSTR2, tracer 1μM) it was 1.06; at PTGDR2 (PTGDR2, tracer 0.1μM), 1.00; at PTGDR2 (PTGDR2, tracer 1μM), 1.06; at RXFP3 (RXFP3, tracer 0.1μM), 0.95; on RXFP3 (RXFP3, tracer 1μM), 0.92. Further, the “NanoBRET Fold Response” value on ADRB1 (ADRB1, tracer 0.1μM) is reported as 1.07; at ADRB1 (ADRB1, tracer 1μM), 1.05.
